Data set [1] can be described thus: MTT cell viability (cytotoxicity). The class given is cell-based. The following applies: human, Caco-2 cells (1 × 10^4), synthetic peptides 0.05 mg/mL, no TbOOH, mean ± SD of at least three experiments, read-out: Percentage of Cell Viability, None (c).
The subject of the next data set is Caco-2 cell monolayer. Put plainly: Transepithelial transport through Caco-2 cell monolayers (Transwell). The class given is in vitro ADME. To be noted: Caco-2 monolayer on Transwell, 21 days, TEER > 1100 Ω × cm^2, 75 µg peptide in 0.75 mL HBSS apical, 37 °C, RP-HPLC UV 220 nm, mean ± SD, n. d. = not detected with RP-HPLC; for RP-HPLC Estimation AP (%): 120 min after 30 min equilibration, apical compartment, % of total peptide added; for RP-HPLC Estimation BL (%): A-B, 120 min, basolateral compartment, % of initial peptide added apically. On the procedure:
Caco-2 cells were obtained from DISCOG (University of Padova, Padova, Italy). The cells cultured in DMEM (high glucose) supplemented with 10% FBS, were used between 35 and 60 passages. In order to perform transepithelial transport, 8 × 10^4 cells were seeded on Transwell^© cell culture inserts (0.4 µm pore sizes, 12 mm diameter, 1.12 cm^2 grown surface; Corning Life Sciences, Tewksbury, MA, USA). Cells were grown, differentiated for 21 days and the monolayer integrity was estimated by transepithelial electrical resistance (TEER) (Millicell® ERS-2 volt-ohmmeter, EDM Millipore, Darmstadt, Germany) showing values higher than 1100 Ω × cm^2.
The intestinal barrier crossing capacity of the fractions or synthetic peptides through Caco-2 cells monolayer was evaluated using Transwell® insert model according to Tonolo et al.. Briefly, after 21 days of culturing, Caco-2 cells differentiated forming a monolayer that delimited an upper part (apical compartment) and lower part (basolateral compartment). The monolayer was rinsed three times with Hank’s balanced salt solution (HBSS) and 10 mM D-glucose and equilibrated for 30 min at 37 °C. After, cells were incubated in the presence of 0.75 mL HBSS containing 150 µg fraction or 75 µg peptide in the apical chamber at 37 °C for 120 min. Samples collected from both compartments (apical and basolateral) at different times were centrifuged at 11,600× g, filtered with 0.45 µm filter, frozen and lyophilized. Subsequently, the obtained samples were dissolved in 100 µL of 0.1% TFA aqueous solution and evaluated by RP-HPLC and Matrix assisted laser desorption/ionization- time of flight/time of flight mass spectrometry (MALDI-TOF/TOF MS).
The apical and basolateral compartments were evaluated in RP-HPLC using a column Onyx Monolithic C18 100 mm × 4.6 mm, LC column (Phenomenex, Torrance, CA, USA) with a Waters 2695 Separation Module (Milfold, MA, USA) with a Waters 996 Photodiode Array Detector. Separations were performed with a linear gradient from 0–60% ACN in the presence of 0.1% TFA over 20 min at a constant flow rate of 2 mL/min monitoring the peaks by UV detection (λ = 220 nm).
Subsequently, the obtained fractions were analysed with a MALDI-TOF/TOF 4800 mass spectrometer (AB Sciex, Framingham, MA, USA). After an initial full MS scan, enlargements on the MS signals of interest were acquired. For the basolateral fractions, the samples, after lyophilisation, were dissolved in 50 µL of 25% ACN and 0.1% TFA. The analysis was then performed on 2 µL of these solutions mixed with 2 µL of peptide MALDI matrix α-cyano-4-hydroxycynnamic acid (10 mg/mL aqueous 70% acetonitrile/0.1% TFA). The following analytical conditions were set for MALDI-TOF spectra acquisition: positive ion reflector mode, initial mass range 500–3500 Da (the mass range was then adapted for each enlargement), variable laser intensity (3000–3800), shots/sub-spectrum 50, total shots/spectrum 1500 and accelerating voltage of 20 kV. Final data analysis and fragments identification were done on Data Explorer software (AB Sciex, Framingham, MA, USA), utilizing external mass calibration performed with mass peptide standards (Sigma-Aldrich, St Louis, MO, USA).
In order to evaluate the intestinal crossing capacity of the four peptides, Transwell® insert model peptide absorption, was performed. […] After 10 min and 120 min, apical and basolateral compartments were collected and analyzed by RP-HPLC and mass spectrometry.

As usually defined, the viability is a read-out of living cells in per cent, often relative to untreated cells.

Peptide text beside a SMILES is read from it.

As for `CSCC[C@H](NC(=O)[C@@H](NC(=O)[C@@H](NC(=O)[C@@H]1CCCN1C(=O)[C@H](CCC(N)=O)NC(=O)[C@H](C)NC(=O)[C@H](CCC(N)=O)NC(=O)[C@H](CS)NC(=O)[C@H](CO)NC(=O)[C@H](CCCCN)NC(=O)[C@H](C)NC(=O)[C@@H]1CCCN1C(=O)[C@@H](NC(=O)[C@@H](NC(=O)[C@@H](N)CC(N)=O)[C@@H](C)O)C(C)C)[C@@H](C)O)[C@@H](C)O)C(=O)O` [N-15-M] (H-NTVPAKSCQAQPTTM-OH), the viability at 24 h, 50 µg/mL in data set [1] was determined as 108 ± 5.96%. Besides, in the data set on Caco-2 cell monolayer, the “RP-HPLC Estimation AP (%)” value is given as 60.76 ± 8.83% and the “RP-HPLC Estimation BL (%)” value is 0.13 ± 0.04%.
As to `CC[C@H](C)[C@H](NC(=O)[C@H](CCCCN)NC(=O)[C@H](CC(=O)O)NC(=O)[C@H](CCC(N)=O)NC(=O)[C@H](CC(C)C)NC(=O)[C@H](CCC(=O)O)NC(=O)[C@H](CC(=O)O)NC(=O)[C@@H](N)CCC(=O)O)C(=O)N[C@@H](Cc1c[nH]cn1)C(=O)N1CCC[C@H]1C(=O)N[C@@H](Cc1ccccc1)C(=O)O` [E-11-F] (H-EDELQDKIHPF-OH), the viability at 24 h, 50 µg/mL in data set [1] was determined as 112 ± 13.5%. Moreover, in the data set with Caco-2 cell monolayer, the “RP-HPLC Estimation AP (%)” value is recorded as 88.28 ± 5.89% and the “RP-HPLC Estimation BL (%)” value is reported as 0.21 ± 0.01%.

Values taken from PMC7070694, “Identification of New Peptides from Fermented Milk Showing Antioxidant Properties: Mechanism of Action” (Antioxidants, 2020).
